The source made the active and inactive calls.
Columns and labels:
Type in all cases: functional, organism-based
[1] = system: Escherichia coli; assay: Antibacterial activity against Escherichia coli by paper disk diffusion method
[2] = system: Staphylococcus epidermidis; assay: Antibacterial activity against Staphylococcus epidermidis by paper disk diffusion method
[3] = system: Staphylococcus aureus; assay: Antibacterial activity against Staphylococcus aureus by paper disk diffusion method
[4] = system: Salmonella sp.; assay: Antibacterial activity against Salmonella sp. by paper disk diffusion method
[5] = system: Pseudomonas sp.; assay: Antibacterial activity against Pseudomonas sp. by paper disk diffusion method

Measured: Activity

C=C[C@@]1(C)CC[C@H]2[C@]3(C)C(=O)C[C@@H](Br)C(C)(C)[C@H]3[C@@H](O)C[C@]2(C)O1
inactive: all assays above

C=C[C@@]1(C)CC[C@H]2[C@]3(C)[C@@H](OC(C)=O)C[C@@H](Br)C(C)(C)[C@H]3[C@@H](O)C[C@]2(C)O1
inactive: all assays above
